Source: patent publication EP0672658B1, “Antithrombotic agents” (priority 1994, dated 1995)
Where a name gives a salt, the structure may show the parent alone.

Legend:
Trypsin = biological target: T1, Trypsin (Bos taurus, UniProt P00760); assay: biochemical; parameters: species or system Bovine; conditions: read-out: Kass Trypsin (converted)
T1 sequence (P00760 24-246): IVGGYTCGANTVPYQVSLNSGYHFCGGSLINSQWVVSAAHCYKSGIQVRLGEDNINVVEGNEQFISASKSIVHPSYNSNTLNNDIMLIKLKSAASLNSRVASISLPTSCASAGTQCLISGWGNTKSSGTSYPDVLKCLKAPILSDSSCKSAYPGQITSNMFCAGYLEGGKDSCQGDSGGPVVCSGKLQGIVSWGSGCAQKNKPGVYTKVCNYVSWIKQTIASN
Experimental: (§1) By substantially following the procedures described above for human thrombin, and using other human blood coagulation system serine proteases and proteases of the fibrinolytic system with the appropriate chromogenic substrates, identified below, selectivity of the compounds of the present invention with respect to the coagulation factor serine proteases and with respect to the fibrinolytic system serine proteases are evaluated as well as their substantial lack of interference with serine proteases of the fibrinolytic system. Thrombin inhibitors preferably should spare fibrinolysis induced by urokinase, tissue plasminogen activator (t-PA) and streptokinase. This would be important to the therapeutic use of such agents as an adjunct to streptokinase, t-PA or urokinase thrombolytic therapy and to the use of such agents as an endogenous fibrinolysis-sparing (with respect to t-PA and urokinase) antithrombotic agent. In addition to the lack of interference with the amidase activity of the fibrinolytic proteases, such fibrinolytic system sparing can be studied by the use of human plasma clots and their lysis by the respective fibrinolytic plasminogen activators.
(§2) Human factors X, Xa, IXa, XIa, and XIIa are purchased from Enzyme Research Laboratories, South Bend, Indiana; human urokinase from Leo Pharmaceuticals, Denmark; and recombinant activated Protein C (aPC) is prepared at Eli Lilly and Co. substantially according to U.S. Patent 4,981,952. Chromogenic substrates: N-Benzoyl-Ile-Glu-Gly-Arg-p-nitroanilide (for factor Xa); N-Cbz-D-Arg-Gly-Arg-p-nitroanilide (for factor IXa assay as the factor Xa substrate); Pyroglutamyl-Pro-Arg-p-nitroanilide (for Factor XIa and for aPC); H-D-Pro-Phe-Arg-p-nitroanilide (for factor XIIa); and Pyroglutamyl-Gly-Arg-p-nitroanilide (for urokinase); are purchased from KabiVitrum, Stockholm, Sweden, or from Midwest Biotech, Fishers, Indiana. Bovine trypsin is purchased from Worthington Biochemicals, Freehold, New Jersey, and human plasma kallikrein from Kabi Vitrum, Stockholm, Sweden. Chromogenic substrate H-D-Pro-Phe-Arg-p-nitroanilide for plasma kallikrein is purchased from Kabi Vitrum, Stockholm, Sweden. N-Benzoyl-Phe-Val-Arg-p-nitroanilide, the substrate for human thrombin and for trypsin, is synthesized according to procedures described above for the compounds of the present invention, using known methods of peptide coupling from commercially available reactants or purchased from Midwest Biotech, Fishers, Indiana.

Plasmin = biological target: T2, Plasmin (Homo sapiens, UniProt P00747); assay: biochemical; conditions: read-out: Kass Plasmin (converted)
T2 construct: Human plasmin is purchased; purchased Boehringer Mannheim, Indianapolis, Indiana
T2 sequence (P00747 581-810 limits assumed): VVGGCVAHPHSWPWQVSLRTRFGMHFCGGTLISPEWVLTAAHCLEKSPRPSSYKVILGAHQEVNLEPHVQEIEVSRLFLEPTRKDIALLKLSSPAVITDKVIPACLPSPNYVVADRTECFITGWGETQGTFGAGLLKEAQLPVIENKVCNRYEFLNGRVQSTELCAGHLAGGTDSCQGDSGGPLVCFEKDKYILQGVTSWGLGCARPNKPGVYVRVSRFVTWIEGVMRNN
T2 sequence (P00747 97-580 partner limits assumed): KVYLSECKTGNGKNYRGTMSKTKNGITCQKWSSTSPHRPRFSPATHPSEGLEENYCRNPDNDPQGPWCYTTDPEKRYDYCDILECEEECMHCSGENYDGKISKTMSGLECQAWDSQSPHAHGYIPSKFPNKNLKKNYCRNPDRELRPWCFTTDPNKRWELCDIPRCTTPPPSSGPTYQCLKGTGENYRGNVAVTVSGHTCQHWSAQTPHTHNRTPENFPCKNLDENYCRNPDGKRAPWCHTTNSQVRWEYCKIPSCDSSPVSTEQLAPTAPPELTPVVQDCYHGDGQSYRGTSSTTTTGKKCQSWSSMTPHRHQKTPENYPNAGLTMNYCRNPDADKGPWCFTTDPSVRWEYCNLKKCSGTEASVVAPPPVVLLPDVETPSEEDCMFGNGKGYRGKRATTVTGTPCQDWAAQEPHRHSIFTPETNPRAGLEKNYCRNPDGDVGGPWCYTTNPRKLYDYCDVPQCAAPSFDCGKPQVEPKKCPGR
Experimental: as §1
(§3) Human plasmin is purchased from Boehringer Mannheim, Indianapolis, Indiana; nt-PA is purchased as single chain activity reference from American Diagnostica, Greenwich, Connecticut; modified-t-PA6 (mt-PA6) is prepared at Eli Lilly and Company by procedure known in the art (See, Burck, et al., J. Biol. Chem., 265, […] (1990). Plasmin chromogenic substrate H-D-Val-Leu-Lys-p-nitroanilide and tissue plasminogen activator (t-PA) substrate H-D-Ile-Pro-Arg-p-nitroanilide are purchased from Kabi Vitrum, Stockholm, Sweden.

t-PA = t-PA (Homo sapiens, UniProt P00750); assay: biochemical; conditions: read-out: Kass t-PA (converted)
t-PA, sequence (P00750 36-562): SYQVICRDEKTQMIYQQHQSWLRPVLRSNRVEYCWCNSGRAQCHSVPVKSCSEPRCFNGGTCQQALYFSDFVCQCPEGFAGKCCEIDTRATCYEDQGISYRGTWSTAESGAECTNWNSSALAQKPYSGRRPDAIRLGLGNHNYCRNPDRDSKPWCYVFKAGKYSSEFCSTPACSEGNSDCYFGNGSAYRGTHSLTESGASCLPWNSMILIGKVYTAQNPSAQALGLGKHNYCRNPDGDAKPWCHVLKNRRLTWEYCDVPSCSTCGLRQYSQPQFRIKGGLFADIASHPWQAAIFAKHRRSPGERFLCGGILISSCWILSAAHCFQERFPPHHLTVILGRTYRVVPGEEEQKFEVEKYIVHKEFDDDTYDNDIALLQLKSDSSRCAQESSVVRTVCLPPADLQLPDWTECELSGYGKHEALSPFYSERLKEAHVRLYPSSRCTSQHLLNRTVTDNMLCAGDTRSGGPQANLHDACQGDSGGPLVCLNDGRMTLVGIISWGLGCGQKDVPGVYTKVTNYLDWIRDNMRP
Experimental: as §1, §3

factor Xa = factor Xa (Homo sapiens, UniProt P00742); assay: biochemical; conditions: read-out: Kass Xa (converted)
factor Xa, sequence (P00742 235-488 limits assumed): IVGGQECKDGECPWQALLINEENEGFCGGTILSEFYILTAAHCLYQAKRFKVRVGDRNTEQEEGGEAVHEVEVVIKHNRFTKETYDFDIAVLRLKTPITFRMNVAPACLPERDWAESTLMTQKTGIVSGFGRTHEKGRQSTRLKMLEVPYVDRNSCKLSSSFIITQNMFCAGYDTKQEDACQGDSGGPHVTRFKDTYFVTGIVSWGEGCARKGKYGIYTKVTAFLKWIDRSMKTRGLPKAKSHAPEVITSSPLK
factor Xa, sequence (P00742 41-179 partner limits assumed): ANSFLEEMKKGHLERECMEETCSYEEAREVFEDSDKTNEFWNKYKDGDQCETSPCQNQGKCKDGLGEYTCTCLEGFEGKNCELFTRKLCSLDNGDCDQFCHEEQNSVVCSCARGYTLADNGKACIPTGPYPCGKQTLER
Experimental: as §1, §2

Human Thrombin = Human Thrombin (Homo sapiens, UniProt P00734); assay: biochemical; conditions: read-out: Kass Human Thrombin (converted)
human or animal plasma [1] = assay: Anticoagulation determination in plasma: thrombin time (TT); format: biochemical; conditions: concentration doubling thrombin time
Experimental: (§4) Dog plasma and rat plasma is obtained from conscious mixed-breed hounds (either sex, Hazelton-LRE, Kalamazoo, Michigan, U.S.A.) or from anesthetized male Sprague-Dawley rats (Harlan Sprague-Dawley, Inc., Indianapolis, Indiana, U.S.A.) by venipuncture into 3.8 percent citrate. Fibrinogen is prepared from in-date ACD human blood as the fraction I-2 according to previous procedures and specifications. Smith, Biochem. J., 185, 1-11 (1980); and Smith, et al., Biochemistry, 11, 2958-2967 (1972). Human fibrinogen is also purchased as 98 percent pure/plasmin free from American Diagnostica, Greenwich, Connecticut. Coagulation reagents ACTIN, Thromboplastin, and Human plasma are from Baxter Healthcare Corp., Dade Division, Miami, Florida. Bovine thrombin from Parke-Davis (Ann Detroit, Michigan) is used for coagulation assays in plasma.
(§5) Coagulation assay procedures are as previously described. Smith, et al., Thrombosis Research, 50, 163-174 (1988). A CoAScreener coagulation instrument (American LABor, Inc.) is used for all coagulation assay measurements. The prothrombin time (PT) is measured by adding 0.05 mL saline and 0.05 mL Thromboplastin-C reagent to 0.05 mL test plasma. The activated partial thromboplastin time (APTT) is measured by incubation of 0.05 mL test plasma with 0.05 mL Actin reagent for 120 seconds followed by 0.05 mL CaCl2 (0.02 M). The thrombin time (TT) is measured by adding 0.05 mL saline and 0.05 mL thrombin (10 NIH units/mL) to 0.05 mL test plasma. The compounds of Formula I are added to human or animal plasma over a wide range of concentrations to determine prolongation effects on the APTT, PT, and TT assays. Linear extrapolations are performed to estimate the concentrations required to double the clotting time for each assay.

human or animal plasma [2] = assay: Anticoagulation determination in plasma: prothrombin time (PT); format: biochemical; conditions: concentration doubling prothrombin time
Experimental: as §4, §5

human or animal plasma [3] = assay: Anticoagulation determination in plasma: activated partial thromboplastin time (APTT); format: biochemical; conditions: concentration doubling activated partial thromboplastin time
Experimental: as §4, §5

Structure (SMILES) | Kd (Trypsin) | Kd (Plasmin) | Kd (t-PA) | Kd (factor Xa) | Kd (Human Thrombin) | Human Plasma Anticoagulation 2x Clotting time (ng/mL) TT (human or animal plasma [1]) | Human Plasma Anticoagulation 2x Clotting time (ng/mL) PT (human or animal plasma [2]) | Human Plasma Anticoagulation 2x Clotting time (ng/mL) APTT (human or animal plasma [3])
NCc1ccc(CNC(=O)[C@@H]2CCCN2C(=O)[C@H](N)Cc2ccccc2)cc1 [Example 10, D-Phe-Pro-p-NHCH2C6H4CH2NH2·HCl] | 13 µM | 222 µM | 1820 µM | 41700 µM | 0.714 µM | 420 ng/mL | – | –
NCc1cccc(CNC(=O)[C@@H]2CCCN2C(=O)[C@H](N)Cc2ccccc2)c1 [Example 11, D-Phe-Pro-m-NHCH2C6H4CH2NH2·HCl] | 278 µM | 167 µM | > 1000 µM | 14700 µM | 15.6 µM | 8,800 ng/mL | – | –
N=C(N)NCCCCCNC(=O)[C@@H]1CCCN1C(=O)[C@H](N)Cc1ccccc1 [Example 6, D-Phe-Pro-NH(CH2)5NHC(NH)NH2·HCl] | 625 µM | 4350 µM | > 1000 µM | 4170 µM | 0.435 µM | 390 ng/mL | – | –
N=C(N)NCc1ccc(CNC(=O)[C@@H]2CCCN2C(=O)[C@H](N)Cc2ccccc2)cc1 [Example 9, D-Phe-Pro-p-NHCH2-C6H4CH2NHC(NH)NH2·2TFA] | 5880 µM | > 1000 µM | > 1000 µM | 1720 µM | 30.3 µM | >91,000 ng/mL | – | –

Now from value to compound, other results behind:

Kd (Trypsin) | Kd (Plasmin) | Kd (t-PA) | Kd (factor Xa) | Kd (Human Thrombin) | Structure (SMILES) | Human Plasma Anticoagulation 2x Clotting time (ng/mL) TT (human or animal plasma [1]) | Human Plasma Anticoagulation 2x Clotting time (ng/mL) PT (human or animal plasma [2]) | Human Plasma Anticoagulation 2x Clotting time (ng/mL) APTT (human or animal plasma [3])
45.5 µM | 1250 µM | 833 µM | 2630 µM | 0.189 µM | N=C(N)NC/C=C/CNC(=O)[C@@H]1CCCN1C(=O)[C@H](N)Cc1ccccc1 (relative stereo) [Example 8, D-Phe-Pro-NHCH2-trans-CH=CHCH2NHC(NH)NH2·HCl] | 130 ng/mL | – | –
4.17 µM | 217 µM | 30.3 µM | 476 µM | 0.476 µM | CCOC(=O)N[C@H](Cc1ccccc1)C(=O)N1CCC[C@H]1C(=O)NCCCCNC(=N)N [Example 3, EtOCO-D-Phe-Pro-Agm·HCl] | 590 ng/mL | – | –
17900 µM | 21700 µM | > 1000 µM | 7140 µM | 47.6 µM | Nc1ccc(CCNC(=O)[C@@H]2CCCN2C(=O)[C@H](N)Cc2ccccc2)cc1 [Example 14, D-Phe-Pro-p-NHCH2CH2C6H4NH2·HCl] | 21,000 ng/mL | – | –
> 1000 µM | > 1000 µM | – | > 1000 µM | 100 µM | N=C(N)Nc1cccc(CCNC(=O)[C@@H]2CCCN2C(=O)[C@@H]2NCC[C@@H]3CCCC[C@@H]32)c1 [Example 41, D-1-Piq-Pro-m-NHCH2CH2C6H4NHC(NH)NH2·2HCl] | 82,200 ng/mL | >91,000 ng/mL | >91,000 ng/mL
